The nature of this data set: Assessment of solubility (McIlvaine buffers, 24 h shake, UPLC-UV). It is filed as physicochemical. Particulars: kinetic from dmso stock. Put shortly:
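Compounds from 10 mM DMSO stocks were shaken for 24 h at room temperature in McIlvaine buffers at pH 2.2, 4.5 and 6.8 (2.5% v/v DMSO final), then filtered. Filtrates were quantified by UPLC-UV at 254 nm against a 50:50 acetonitrile/water reference assumed fully dissolved, as a single determination.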

The structures appear in SMILES notation. ≈ marks a conversion by molar mass, not a printed value.

The solubility is how much of the substance goes into solution per volume. Turning to `COc1c(C(=O)O)cnn1-c1cccc(-c2cccc(C)c2OCc2ccc3c(c2C)CCN(S(C)(=O)=O)C3)n1` [Compound 160], the solubility at 24 h (pH 2.2, aqueous buffer) is below 0.1 µg/mL; the concentration in solution (pH 4.5, aqueous buffer) (solubility at 24 h) came to 0.93 µg/mL (≈ 1.65 µM); the solubility at 24 h (pH 6.8, aqueous buffer) was 73 µg/mL (≈ 130 µM).

As to `Cc1cc(COc2c(C)cccc2-c2cccc(-n3ncc(C(=O)O)c3OC(C)C)n2)cc2c1CN(C1CCOCC1)CC2` [Compound 161], the solubility at 24 h reads like this: (pH 2.2, aqueous buffer) 110 µg/mL (≈ 184 µM); (pH 4.5, aqueous buffer) 91 µg/mL (≈ 152 µM); (pH 6.8, aqueous buffer) 97 µg/mL (≈ 163 µM).

Turning to `CCOc1c(C(=O)O)cnn1-c1cccc(-c2cccc(C)c2OCc2ccc3c(c2C)CCN(C2CCOCC2)CC3)n1` [Compound 162], the solubility at 24 h came out at 100 µg/mL (≈ 168 µM) (pH 2.2, aqueous buffer); 83 µg/mL (≈ 139 µM) (pH 4.5, aqueous buffer); 82 µg/mL (≈ 137 µM) (pH 6.8, aqueous buffer).

For the molecule `CCOc1c(C(=O)O)cnn1-c1cccc(-c2cccc(C)c2OCc2ccc3c(c2C)CCN(CC2CCOC(C)(C)C2)C3)n1` (stereo not drawn) [Compound 163], the solubility at 24 h reads like this: (pH 2.2, aqueous buffer) 110 µg/mL (≈ 176 µM); (pH 4.5, aqueous buffer) 75 µg/mL (≈ 120 µM); (pH 6.8, aqueous buffer) 73 µg/mL (≈ 117 µM).

Turning to `CCOc1c(C(=O)O)cnn1-c1cccc(-c2cccc(C)c2OCc2ccc3c(c2C)CCN(C2COC2)C3)n1` [Compound 164], the solubility at 24 h reads like this: (pH 2.2, aqueous buffer) 100 µg/mL (≈ 180 µM); (pH 4.5, aqueous buffer) 72 µg/mL (≈ 130 µM); (pH 6.8, aqueous buffer) 93 µg/mL (≈ 168 µM).

Molecule `CCOc1c(C(=O)O)cnn1-c1cccc(-c2cccc(C)c2OCc2ccc3c(c2C(F)(F)F)CCN(C2CCOCC2)C3)n1` [Compound 165] returned a solubility at 24 h (pH 2.2, aqueous buffer) of 120 µg/mL (≈ 188 µM); a solubility at 24 h (pH 4.5, aqueous buffer) of 58 µg/mL (≈ 91.1 µM); a solubility at 24 h (pH 6.8, aqueous buffer) of 39 µg/mL (≈ 61.3 µM).

Turning to `COc1c(C(=O)O)cnn1-c1cccc(-c2cccc(C)c2OCc2ccc3c(c2C(F)(F)F)CCN(C2CCOCC2)C3)n1` [Compound 166], the solubility at 24 h worked out at 110 µg/mL (≈ 177 µM) (pH 2.2, aqueous buffer); 51 µg/mL (≈ 81.9 µM) (pH 4.5, aqueous buffer); 64 µg/mL (≈ 103 µM) (pH 6.8, aqueous buffer).

`COc1c(C(=O)O)cnn1-c1cccc(-c2cccc(C)c2OCc2ccc3c(c2C)CCN(C2CCOCC2)C3=O)n1` [Compound 167, 5-Methoxy-1-(6-{3-methyl-2-[5-methyl-1-oxo-2-(tetrahydro-pyran-4-yl)-1,2,3,4-tetrahydro-isoquinolin-6-ylmethoxy]-phenyl}-pyridin-2-yl)-1H-pyrazole-4-carboxylic acid]: the solubility at 24 h came to 2.1 µg/mL (≈ 3.6 µM) (pH 2.2, aqueous buffer); 5.9 µg/mL (≈ 10.1 µM) (pH 4.5, aqueous buffer); 83 µg/mL (≈ 142 µM) (pH 6.8, aqueous buffer).

On to `CCOc1c(C(=O)O)cnn1-c1cccc(-c2cccc(C)c2OCc2ccc3c(c2C)CCN(CCOCCO)C3)n1` [Compound 168], for which the solubility at 24 h was found to be 110 µg/mL (≈ 187 µM) (pH 2.2, aqueous buffer); 90 µg/mL (≈ 153 µM) (pH 4.5, aqueous buffer); 88 µg/mL (≈ 150 µM) (pH 6.8, aqueous buffer).

For the molecule `CCOc1c(C(=O)O)cnn1-c1cccc(-c2cccc(C)c2OCc2cc(C)c3c(c2)CCN(C2CCOCC2)C3)n1` [Compound 169], the solubility at 24 h is, setting by setting: (pH 2.2, aqueous buffer) 120 µg/mL (≈ 206 µM); (pH 4.5, aqueous buffer) 100 µg/mL (≈ 172 µM); (pH 6.8, aqueous buffer) 97 µg/mL (≈ 166 µM).

Regarding `CCOc1c(C(=O)O)cnn1-c1cccc(-c2cccc(C)c2OCc2ccc3c(c2C)CCN(C[C@H]2COCCO2)C3)n1` [Compound 170], the solubility at 24 h runs as follows: (pH 2.2, aqueous buffer) 120 µg/mL (≈ 200 µM); (pH 4.5, aqueous buffer) 96 µg/mL (≈ 160 µM); (pH 6.8, aqueous buffer) 95 µg/mL (≈ 159 µM).

As to `COc1c(C(=O)O)cnn1-c1cccc(-c2cccc(C)c2OCc2cc(C)c3c(c2)CCN(C2CCOCC2)C3)n1` [Compound 171], the solubility at 24 h runs as follows: (pH 2.2, aqueous buffer) 120 µg/mL (≈ 211 µM); (pH 4.5, aqueous buffer) 99 µg/mL (≈ 174 µM); (pH 6.8, aqueous buffer) 98 µg/mL (≈ 172 µM).

The molecule `CCOc1c(C(=O)O)cnn1-c1cccc(-c2cccc(C)c2OCc2ccc3c(c2C)CCN(CC2CCOCC2)C3)n1` [Compound 172] gave a solubility at 24 h (pH 2.2, aqueous buffer) of 110 µg/mL (≈ 184 µM); a solubility at 24 h (pH 4.5, aqueous buffer) of 87 µg/mL (≈ 146 µM); a solubility at 24 h (pH 6.8, aqueous buffer) of 85 µg/mL (≈ 142 µM).

Turning to `CCOc1c(C(=O)O)cnn1-c1cccc(-c2cccc(C)c2OCc2cc(C)c3c(c2)CCN(C2CCCOC2)C3)n1` (stereo not drawn) [Compound 173], the solubility at 24 h stood at 130 µg/mL (≈ 223 µM) (pH 2.2, aqueous buffer); 98 µg/mL (≈ 168 µM) (pH 4.5, aqueous buffer); 97 µg/mL (≈ 166 µM) (pH 6.8, aqueous buffer).

As for `CCOc1c(C(=O)O)cnn1-c1cccc(-c2cccc(C)c2OCc2cc(C)c3c(c2)CCN(C2COC2)C3)n1` [Compound 174], the solubility at 24 h was found to be 99 µg/mL (≈ 178 µM) (pH 2.2, aqueous buffer); 71 µg/mL (≈ 128 µM) (pH 4.5, aqueous buffer); 91 µg/mL (≈ 164 µM) (pH 6.8, aqueous buffer).

With `CCOc1c(C(=O)O)cnn1-c1cccc(-c2cccc(C)c2OCc2ccc3c(c2C)CCN(C2COC2)CC3)n1` [Compound 175], the solubility at 24 h was determined as 110 µg/mL (≈ 193 µM) (pH 2.2, aqueous buffer); 80 µg/mL (≈ 141 µM) (pH 4.5, aqueous buffer); 85 µg/mL (≈ 149 µM) (pH 6.8, aqueous buffer).

As to `COc1c(C(=O)O)cnn1-c1cccc(-c2cccc(C)c2OCc2ccc3c(c2C)CCN(C2COC2)CC3)n1` [Compound 176], the solubility at 24 h (pH 2.2, aqueous buffer) turned out to be 100 µg/mL (≈ 180 µM); the concentration in solution (pH 4.5, aqueous buffer) (solubility at 24 h) was 77 µg/mL (≈ 139 µM); the concentration in solution (pH 6.8, aqueous buffer) (solubility at 24 h) was 43 µg/mL (≈ 77.5 µM).

For the molecule `COc1c(C(=O)O)cnn1-c1cccc(-c2cccc(C)c2OCc2ccc3c(c2F)CCN(C2COC2)C3)n1` [Compound 177], the solubility at 24 h worked out at 110 µg/mL (≈ 202 µM) (pH 2.2, aqueous buffer); 58 µg/mL (≈ 107 µM) (pH 4.5, aqueous buffer); 86 µg/mL (≈ 158 µM) (pH 6.8, aqueous buffer).

Turning to `COc1c(C(=O)O)cnn1-c1cccc(-c2cccc(C)c2OCc2cc(C)c3c(c2C)CCN(C2COC2)C3)n1` [Compound 178], the solubility at 24 h reads like this: (pH 2.2, aqueous buffer) 100 µg/mL (≈ 180 µM); (pH 4.5, aqueous buffer) 72 µg/mL (≈ 130 µM); (pH 6.8, aqueous buffer) 86 µg/mL (≈ 155 µM).

Turning to `CCOc1c(C(=O)O)cnn1-c1cccc(-c2cccc(C)c2OCc2ccc3c(c2C)CCN(C[C@H]2COC(C)(C)O2)C3)n1` [Compound 179], the solubility at 24 h is 43 µg/mL (≈ 70.2 µM) (pH 2.2, aqueous buffer); 92 µg/mL (≈ 150 µM) (pH 4.5, aqueous buffer); 93 µg/mL (≈ 152 µM) (pH 6.8, aqueous buffer).

For the origin of these results see patent publication US8906904B2, “Alkoxy pyrazoles as soluble guanylate cyclase activators” (Boehringer Ingelheim International GmbH, priority 2012, dated 2014).
